PubChem BioAssay (NCI)
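Dose response: 5 concentrations. Exposure: 48 h. Format: 96-well plates. Endpoint: linear interpolation; highest concentration if not reached. GI50 is the concentration that inhibits growth by half. TGI: concentration producing complete growth inhibition.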

Columns and labels:
Experiment in all cases: inhibition of tumour cell growth, NCI panel, 48 h
786-0 renal = tested on: 786-0 renal
A498 renal = tested on: A498 renal
A549 NSCLC = tested on: A549 NSCLC
ACHN renal = tested on: ACHN renal
BT-549 breast = tested on: BT-549 breast
CAKI-1 renal = tested on: CAKI-1 renal
CCRF-CEM leukemia = tested on: CCRF-CEM leukemia
COLO 205 colon = tested on: COLO 205 colon
DU-145 prostate = tested on: DU-145 prostate
EKVX NSCLC = tested on: EKVX NSCLC
HCC-2998 colon = tested on: HCC-2998 colon
HCT-116 colon = tested on: HCT-116 colon
HCT-15 colon = tested on: HCT-15 colon
HL-60(TB) leukemia = tested on: HL-60(TB) leukemia
HOP-62 NSCLC = tested on: HOP-62 NSCLC
HOP-92 NSCLC = tested on: HOP-92 NSCLC
HS 578T breast = tested on: HS 578T breast
HT29 colon = tested on: HT29 colon
IGROV1 ovarian = tested on: IGROV1 ovarian
K-562 leukemia = tested on: K-562 leukemia
KM12 colon = tested on: KM12 colon
LOX IMVI melanoma = tested on: LOX IMVI melanoma
M14 melanoma = tested on: M14 melanoma
MALME-3M melanoma = tested on: MALME-3M melanoma
MCF7 breast = tested on: MCF7 breast
MDA-MB-231 breast = tested on: MDA-MB-231 breast
MDA-MB-435 = tested on: MDA-MB-435
MOLT-4 leukemia = tested on: MOLT-4 leukemia
NCI-H226 lung = tested on: NCI-H226 lung
NCI-H460 lung = tested on: NCI-H460 lung
NCI-H522 lung = tested on: NCI-H522 lung
NCI/ADR-RES ovarian = tested on: NCI/ADR-RES ovarian
OVCAR-3 ovarian = tested on: OVCAR-3 ovarian
OVCAR-4 ovarian = tested on: OVCAR-4 ovarian
OVCAR-5 ovarian = tested on: OVCAR-5 ovarian
OVCAR-8 ovarian = tested on: OVCAR-8 ovarian
PC-3 prostate = tested on: PC-3 prostate
RPMI-8226 leukemia = tested on: RPMI-8226 leukemia
RXF 393 renal = tested on: RXF 393 renal
SF-268 CNS = tested on: SF-268 CNS
SF-295 CNS = tested on: SF-295 CNS
SF-539 CNS = tested on: SF-539 CNS
SK-MEL-2 melanoma = tested on: SK-MEL-2 melanoma
SK-MEL-28 melanoma = tested on: SK-MEL-28 melanoma
SK-MEL-5 melanoma = tested on: SK-MEL-5 melanoma
SK-OV-3 ovarian = tested on: SK-OV-3 ovarian
SN12C renal = tested on: SN12C renal
SNB-19 CNS = tested on: SNB-19 CNS
SNB-75 CNS = tested on: SNB-75 CNS
SR leukemia = tested on: SR leukemia
SW-620 colon = tested on: SW-620 colon
T-47D breast = tested on: T-47D breast
TK-10 renal = tested on: TK-10 renal
U251 CNS = tested on: U251 CNS
UACC-257 melanoma = tested on: UACC-257 melanoma
UACC-62 melanoma = tested on: UACC-62 melanoma
UO-31 renal = tested on: UO-31 renal

**Q.** Which GI50 (786-0 renal) does the source give for `c1ccc2c(NCCCN3CCOCC3)c3oc4ccccc4c3nc2c1` here?
**A.** 1950 nM

**Q.** What about the TGI (786-0 renal) of the same molecule?
**A.** 14000 nM

**Q.** What about the GI50 (A498 renal) of the same molecule?
**A.** 2010 nM

**Q.** And the TGI (A498 renal)?
**A.** 4410 nM

**Q.** What about the GI50 (A549 NSCLC) of the same molecule?
**A.** 1580 nM

**Q.** What about the TGI (A549 NSCLC) of the same molecule?
**A.** 12600 nM

**Q.** And the GI50 (ACHN renal)?
**A.** 577 nM

**Q.** What about the TGI (ACHN renal) of the same molecule?
**A.** 20100 nM

**Q.** What about the GI50 (BT-549 breast) of the same molecule?
**A.** 2030 nM

**Q.** And the TGI (BT-549 breast)?
**A.** 4750 nM

**Q.** And the GI50 (CAKI-1 renal)?
**A.** 1100 nM

**Q.** What about the TGI (CAKI-1 renal) of the same molecule?
**A.** 11100 nM

**Q.** What about the GI50 (CCRF-CEM leukemia) of the same molecule?
**A.** 1640 nM

**Q.** And the TGI (CCRF-CEM leukemia)?
**A.** 15000 nM

**Q.** What about the GI50 (COLO 205 colon) of the same molecule?
**A.** 949 nM

**Q.** And the TGI (COLO 205 colon)?
**A.** 2770 nM

**Q.** And the GI50 (DU-145 prostate)?
**A.** 1550 nM

**Q.** What about the TGI (DU-145 prostate) of the same molecule?
**A.** 16200 nM

**Q.** And the GI50 (EKVX NSCLC)?
**A.** 2540 nM

**Q.** What about the TGI (EKVX NSCLC) of the same molecule?
**A.** 13200 nM

**Q.** What about the GI50 (HCC-2998 colon) of the same molecule?
**A.** 1100 nM

**Q.** And the TGI (HCC-2998 colon)?
**A.** 3720 nM

**Q.** What about the GI50 (HCT-116 colon) of the same molecule?
**A.** 437 nM

**Q.** What about the TGI (HCT-116 colon) of the same molecule?
**A.** 11100 nM

**Q.** What about the GI50 (HCT-15 colon) of the same molecule?
**A.** 719 nM

**Q.** And the TGI (HCT-15 colon)?
**A.** 12200 nM

**Q.** What about the GI50 (HL-60(TB) leukemia) of the same molecule?
**A.** 2340 nM

**Q.** And the TGI (HL-60(TB) leukemia)?
**A.** 8590 nM

**Q.** What about the GI50 (HOP-62 NSCLC) of the same molecule?
**A.** 1670 nM

**Q.** And the TGI (HOP-62 NSCLC)?
**A.** 8180 nM

**Q.** And the GI50 (HOP-92 NSCLC)?
**A.** 2100 nM

**Q.** And the TGI (HOP-92 NSCLC)?
**A.** 5820 nM

**Q.** And the GI50 (HS 578T breast)?
**A.** 2080 nM

**Q.** And the TGI (HS 578T breast)?
**A.** 6990 nM

**Q.** And the GI50 (HT29 colon)?
**A.** 566 nM

**Q.** What about the TGI (HT29 colon) of the same molecule?
**A.** 2330 nM

**Q.** And the GI50 (IGROV1 ovarian)?
**A.** 2260 nM

**Q.** What about the TGI (IGROV1 ovarian) of the same molecule?
**A.** 12000 nM

**Q.** What about the GI50 (K-562 leukemia) of the same molecule?
**A.** 649 nM

**Q.** And the TGI (K-562 leukemia)?
**A.** > 100000 nM

**Q.** And the GI50 (KM12 colon)?
**A.** 1460 nM

**Q.** And the TGI (KM12 colon)?
**A.** 15300 nM

**Q.** And the GI50 (LOX IMVI melanoma)?
**A.** 568 nM

**Q.** And the TGI (LOX IMVI melanoma)?
**A.** 3230 nM

**Q.** And the GI50 (M14 melanoma)?
**A.** 1660 nM

**Q.** What about the TGI (M14 melanoma) of the same molecule?
**A.** 4110 nM

**Q.** And the GI50 (MALME-3M melanoma)?
**A.** 1820 nM

**Q.** And the TGI (MALME-3M melanoma)?
**A.** 3850 nM

**Q.** And the GI50 (MCF7 breast)?
**A.** 1020 nM

**Q.** And the TGI (MCF7 breast)?
**A.** 5830 nM

**Q.** What about the GI50 (MDA-MB-231 breast) of the same molecule?
**A.** 1540 nM

**Q.** What about the TGI (MDA-MB-231 breast) of the same molecule?
**A.** 7140 nM

**Q.** And the GI50 (MDA-MB-435)?
**A.** 1260 nM

**Q.** And the TGI (MDA-MB-435)?
**A.** 2610 nM

**Q.** What about the GI50 (MOLT-4 leukemia) of the same molecule?
**A.** 476 nM

**Q.** And the TGI (MOLT-4 leukemia)?
**A.** 38100 nM

**Q.** What about the GI50 (NCI-H226 lung) of the same molecule?
**A.** 1930 nM

**Q.** And the TGI (NCI-H226 lung)?
**A.** 5300 nM

**Q.** And the GI50 (NCI-H460 lung)?
**A.** 459 nM

**Q.** What about the TGI (NCI-H460 lung) of the same molecule?
**A.** 5960 nM

**Q.** What about the GI50 (NCI-H522 lung) of the same molecule?
**A.** 1280 nM

**Q.** And the TGI (NCI-H522 lung)?
**A.** 3150 nM

**Q.** And the GI50 (NCI/ADR-RES ovarian)?
**A.** 692 nM

**Q.** And the TGI (NCI/ADR-RES ovarian)?
**A.** 10900 nM

**Q.** And the GI50 (OVCAR-3 ovarian)?
**A.** 2410 nM

**Q.** And the TGI (OVCAR-3 ovarian)?
**A.** 45400 nM

**Q.** And the GI50 (OVCAR-4 ovarian)?
**A.** 1240 nM

**Q.** And the TGI (OVCAR-4 ovarian)?
**A.** 5140 nM

**Q.** What about the GI50 (OVCAR-5 ovarian) of the same molecule?
**A.** 1570 nM

**Q.** What about the TGI (OVCAR-5 ovarian) of the same molecule?
**A.** 7280 nM

**Q.** What about the GI50 (OVCAR-8 ovarian) of the same molecule?
**A.** 1170 nM

**Q.** What about the TGI (OVCAR-8 ovarian) of the same molecule?
**A.** 11200 nM

**Q.** What about the GI50 (PC-3 prostate) of the same molecule?
**A.** 1890 nM

**Q.** And the TGI (PC-3 prostate)?
**A.** 7590 nM

**Q.** And the GI50 (RPMI-8226 leukemia)?
**A.** 1720 nM

**Q.** And the TGI (RPMI-8226 leukemia)?
**A.** 6280 nM

**Q.** What about the GI50 (RXF 393 renal) of the same molecule?
**A.** 1290 nM

**Q.** What about the TGI (RXF 393 renal) of the same molecule?
**A.** 3220 nM

**Q.** And the GI50 (SF-268 CNS)?
**A.** 1250 nM

**Q.** What about the TGI (SF-268 CNS) of the same molecule?
**A.** 15500 nM

**Q.** What about the GI50 (SF-295 CNS) of the same molecule?
**A.** 1590 nM

**Q.** What about the TGI (SF-295 CNS) of the same molecule?
**A.** 10700 nM

**Q.** What about the GI50 (SF-539 CNS) of the same molecule?
**A.** 1500 nM

**Q.** And the TGI (SF-539 CNS)?
**A.** 3460 nM

**Q.** What about the GI50 (SK-MEL-2 melanoma) of the same molecule?
**A.** 1730 nM

**Q.** And the TGI (SK-MEL-2 melanoma)?
**A.** 3290 nM

**Q.** What about the GI50 (SK-MEL-28 melanoma) of the same molecule?
**A.** 1880 nM

**Q.** What about the TGI (SK-MEL-28 melanoma) of the same molecule?
**A.** 3790 nM

**Q.** And the GI50 (SK-MEL-5 melanoma)?
**A.** 1980 nM

**Q.** What about the TGI (SK-MEL-5 melanoma) of the same molecule?
**A.** 3990 nM

**Q.** And the GI50 (SK-OV-3 ovarian)?
**A.** 3140 nM

**Q.** What about the TGI (SK-OV-3 ovarian) of the same molecule?
**A.** 18600 nM

**Q.** What about the GI50 (SN12C renal) of the same molecule?
**A.** 1020 nM

**Q.** And the TGI (SN12C renal)?
**A.** 11500 nM

**Q.** What about the GI50 (SNB-19 CNS) of the same molecule?
**A.** 1870 nM

**Q.** And the TGI (SNB-19 CNS)?
**A.** 13100 nM

**Q.** What about the GI50 (SNB-75 CNS) of the same molecule?
**A.** 1310 nM

**Q.** And the TGI (SNB-75 CNS)?
**A.** 2600 nM

**Q.** What about the GI50 (SR leukemia) of the same molecule?
**A.** 599 nM

**Q.** And the TGI (SR leukemia)?
**A.** 10100 nM

**Q.** What about the GI50 (SW-620 colon) of the same molecule?
**A.** 509 nM

**Q.** What about the TGI (SW-620 colon) of the same molecule?
**A.** 10500 nM

**Q.** What about the GI50 (T-47D breast) of the same molecule?
**A.** 2610 nM

**Q.** And the TGI (T-47D breast)?
**A.** 9770 nM

**Q.** And the GI50 (TK-10 renal)?
**A.** 2550 nM

**Q.** What about the TGI (TK-10 renal) of the same molecule?
**A.** 9750 nM

**Q.** What about the GI50 (U251 CNS) of the same molecule?
**A.** 1490 nM

**Q.** And the TGI (U251 CNS)?
**A.** 11000 nM

**Q.** What about the GI50 (UACC-257 melanoma) of the same molecule?
**A.** 1940 nM

**Q.** And the TGI (UACC-257 melanoma)?
**A.** 4080 nM

**Q.** What about the GI50 (UACC-62 melanoma) of the same molecule?
**A.** 2160 nM

**Q.** What about the TGI (UACC-62 melanoma) of the same molecule?
**A.** 5490 nM

**Q.** What about the GI50 (UO-31 renal) of the same molecule?
**A.** 1730 nM

**Q.** And the TGI (UO-31 renal)?
**A.** 11700 nM
